Earlier results in patent publication US20250213563A1, “SUBSTITUTED PYRIMIDIN-4(3H)-ONES FOR USE IN TREATING CANCER” (NAVIRE PHARMA, INC., priority 2021, published 2025).
“Also recorded” adds a separate entry of the source.

Columns and labels:
DUSP6 mRNA in tumors = conditions: at ≥20 mg daily; cited from earlier work
[1] = cited from earlier work
pERK in tumors = conditions: at ≥20 mg daily; cited from earlier work

Compound | Human PD: DUSP6 mRNA inhibition in tumors (DUSP6 mRNA in tumors) [% DUSP6 mRNA] | Human DLTs ([1]; comparator SHP2 inhibitors) | Human Half life ([1]; comparator SHP2 inhibitors) [h] | Human PD: pERK inhibition in half of tumors analyzed (pERK in tumors) [% pERKinhibition] | most common AEs ([1]; Human DLTs) | patients in whom AEs lead to dose interruption ([1]; Human DLTs)
C[C@@H]1OCC2(CCN(c3cnc(Sc4ccnc(N)c4Cl)c(N)n3)CC2)[C@@H]1N [TNO-155] | >50 | LVEF decrease, liver; also recorded: enzyme elevation,; also recorded: diarrhea | 35 |  |  | 
Cc1nc(N2CCC3(CC2)CO[C@@H](C)[C@H]3N)c(CO)nc1Sc1ccnc(N)c1Cl [RMC-4630] |  |  | 28 to 33 | >30 | patients; diarrhea,; also recorded: thrombocytopenia,; also recorded: edema are most | interruption in 50%
